Test results reported in US5068349A, “Mitomycin derivatives” (Kyowa Hakko Kogyo Co., Ltd., priority 1988, dated 1991).
Converted amounts (≈) assume the structure as drawn.

Assays:
[1] = tested on: Streptococcus faecium ATCC 10541; assay: minimum growth inhibitory concentration, agar dilution method (SF); format: cell-based; details: Enterococcus faecium, ATCC10541, pH 7.0
Description: (§1) The antibacterial activity of Compounds (I) against various bacteria [minimum growth inhibitory concentration (μ g/ml)] is shown in Table 3.
(§2) The minimum growth inhibitory concentration was determined by the agar dilution method at pH 7.0. In the table, names of bacteria are shown by the following symbols.
SF : Streptococcus faecium ATCC 10541

[2] = tested on: Staphylococcus aureus ATCC 6538P; assay: minimum growth inhibitory concentration, agar dilution method (SA); format: cell-based; details: ATCC6538P, pH 7.0
Description: as §1, §2
SA : Staphylococcus aureus ATCC 6538P

[3] = tested on: Proteus vulgaris ATCC 6897; assay: minimum growth inhibitory concentration, agar dilution method (PV); format: cell-based; details: ATCC6897, pH 7.0
Description: as §1, §2
PV : Proteus vulgaris ATCC 6897

[4] = tested on: Klebsiella pneumoniae ATCC 10031; assay: minimum growth inhibitory concentration, agar dilution method (KP); format: cell-based; details: ATCC10031, pH 7.0
Description: as §1, §2
KP : Klebsiella pneumoniae ATCC 10031

[5] = Determination of LD50 (single administration, 14 days observation); details: mouse, in vivo, ddY mice, Behrens Kaerber's method
Description: (§3) LD50 and ED50 were determined by the following methods, respectively.
(1) Determination of LD50
Five ddY mice were used for each group, and the test compounds were administered once to the mice intraperitoneally or intravenously. […] LD50 was calculated from the death rate of each group according to the Behrens Kaerber's method.

Sarcoma 180 solid tumor = assay: Determination of ED50 against Sarcoma 180 solid tumor; format: in vivo; details: Mus musculus, dose at T/C 0.5 (tumor volume, 7 days after implantation), male ddY mice, 24 hours after implantation
Description: as §3
(2) Determination of ED50
Sarcoma 180 cells (5×10^6 cells) were implanted intraperitoneally into a ddY mouse and the cells were collected from the ascitic fluid of the animal 7 days after the implantation. The cells were washed once with sterilized physiological saline solution and then suspended in sterilized physiological saline solution to prepare a cell suspension containing 5×10^7 cells/ml. The suspension (0.1 ml) was subcutaneously implanted into the right axilla of male ddY mice weighing 20±2 g.
A test compound was dissolved in physiological saline solution or Tween 80-containing physiological saline solution, and 0.1 to 0.2 ml of the solution was administered to 5 mice as one group intraperitoneally or intravenously 24 hours after the implantation of the tumor cells.
The anti-tumor activity of the test compound was determined by measuring the major axis (a) and the minor axis (b) of the tumor 7 days after the implantation, calculating a value of (a)×(b)^2 /2 corresponding to the volume of the tumor, and calculating a ratio T/C of the volume (T) of the group which received the test compound to the volume (C) of the control group which received no test compound T/C at each dose given was plotted on a graph in which T/C is shown by an ordinary scale on the vertical axis and a dose is shown by a logarithmic scale on the abscissa. The relationship between the dose and T/C was determined to be a straight line by the least-squares method.

[6] = Sarcoma-180, ip, 168 h, intraperitoneal
[7] = Sarcoma-180, 168 h, intravenous

Structure (SMILES) | MIC [1] [µg/mL] | MIC [2] [µg/mL] | MIC [3] [µg/mL] | MIC [4] [µg/mL] | LD50 at 336 h ([5]; ip, intraperitoneal) [mg/kg] | ED50 (Sarcoma 180 solid tumor; [6]) [mg/kg] | LD50 at 336 h ([5]; intravenous) [mg/kg] | ED50 (Sarcoma 180 solid tumor; [7]) [mg/kg]
COCC1=C(N)C(=O)C2=C(C1=O)N1CC3C(N3C)C1(OC)C2COC(N)=O (stereo not drawn) [Compound 1, 6-Demethyl-6-methoxymethylporfiromycin] | 0.63 (≈ 1.66 µM) | 0.31 (≈ 0.819 µM) | > 40 | 0.63 (≈ 1.66 µM) | – | – | – | –
COCC1=C(N)C(=O)C2=C(C1=O)N1CC3NC3C1(OC)C2COC(N)=O (stereo not drawn) [Compound 2, 6-Demethyl-6-methoxymethylmitomycin C] | 1.3 (≈ 3.57 µM) | 1.3 (≈ 3.57 µM) | 1.3 (≈ 3.57 µM) | 0.31 (≈ 0.851 µM) | 75 | 34 | – | –
COCC1=C(OC)C(=O)C2=C(C1=O)N1CC3NC3C1(OC)C2COC(N)=O (stereo not drawn) [Compound 4, 6-Demethyl-6-methoxymethylmitomycin A] | 10 (≈ 26.4 µM) | 10 (≈ 26.4 µM) | 2.5 (≈ 6.59 µM) | 0.63 (≈ 1.66 µM) | – | – | – | –
CCCCOCC1=C(N)C(=O)C2=C(C1=O)N1CC3NC3C1(OC)C2COC(N)=O (stereo not drawn) [Compound 6, 6-Demethyl-6-n-butoxymethylmitomycin C] | 0.31 (≈ 0.763 µM) | 0.63 (≈ 1.55 µM) | – | 5 (≈ 12.3 µM) | > 50 | 38 | – | –
COC12C(COC(N)=O)C3=C(C(=O)C(COCc4ccccc4)=C(N)C3=O)N1CC1NC12 (stereo not drawn) [Compound 7, 6-Demethyl-6-benzyloxymethylmitomycin C] | 0.16 (≈ 0.363 µM) | 0.63 (≈ 1.43 µM) | – | 5 (≈ 11.4 µM) | 60 | 25.2 | – | –
COC12C(COC(N)=O)C3=C(C(=O)C(COC(C)C)=C(N)C3=O)N1CC1NC12 (stereo not drawn) [Compound 8, 6-Demethyl-6-isopropoxymethylmitomycin C] | 0.31 (≈ 0.79 µM) | 0.63 (≈ 1.61 µM) | 40 (≈ 102 µM) | 0.63 (≈ 1.61 µM) | – | – | > 50 | 14.9
COC12C(COC(N)=O)C3=C(C(=O)C(CO)=C(N)C3=O)N1CC1NC12 (stereo not drawn) [Compound 10, 6-Demethyl-6-hydroxymethylmitomycin C] | 10 (≈ 28.5 µM) | 5 (≈ 14.3 µM) | 5 (≈ 14.3 µM) | 1.3 (≈ 3.71 µM) | – | – | – | –
CCSCC1=C(N)C(=O)C2=C(C1=O)N1CC3NC3C1(OC)C2COC(N)=O (stereo not drawn) [Compound 11, 6-Demethyl-6-ethylthiomethylmitomycin C] | 0.31 (≈ 0.786 µM) | 0.039 (≈ 0.0989 µM) | 0.16 (≈ 0.406 µM) | 1.3 (≈ 3.3 µM) | 30 | 11.6 | – | –
COC(=O)CCSCC1=C(N)C(=O)C2=C(C1=O)N1CC3NC3C1(OC)C2COC(N)=O (stereo not drawn) [Compound 12, 6-Demethyl-6-(2-methoxycarbonylethylthio)methylmitomycin C] | 0.63 (≈ 1.39 µM) | 0.31 (≈ 0.685 µM) | 1.3 (≈ 2.87 µM) | 0.31 (≈ 0.685 µM) | – | – | – | –
COC12C(COC(N)=O)C3=C(C(=O)C(CSCCO)=C(N)C3=O)N1CC1NC12 (stereo not drawn) [Compound 13, 6-Demethyl-6-(2-hydroxyethylthio)methylmitomycin C] | 10 (≈ 24.4 µM) | 10 (≈ 24.4 µM) | 40 (≈ 97.5 µM) | 5 (≈ 12.2 µM) | – | – | – | –
CCCCCCCCCCCCSCC1=C(N)C(=O)C2=C(C1=O)N1CC3NC3C1(OC)C2COC(N)=O (stereo not drawn) [Compound 14, 6-Demethyl-6-dodecylthiomethylmitomycin C] | 0.39 (≈ 0.729 µM) | 0.2 (≈ 0.374 µM) | > 50 | – | – | – | – | –
COC12C(COC(N)=O)C3=C(C(=O)C(CSC(C)C)=C(N)C3=O)N1CC1NC12 (stereo not drawn) [Compound 16, 6-Demethyl-6-isopropylthiomethylmitomycin C] | 0.078 (≈ 0.191 µM) | 0.16 (≈ 0.392 µM) | 10 (≈ 24.5 µM) | 1.3 (≈ 3.18 µM) | – | – | 37.5 | 8.4
COC12C(COC(N)=O)C3=C(C(=O)C(CSc4ccccc4)=C(N)C3=O)N1CC1NC12 (stereo not drawn) [Compound 17, 6-Demethyl-6-phenylthiomethylmitomycin C] | 0.31 (≈ 0.701 µM) | 20 (≈ 45.2 µM) | 40 (≈ 90.4 µM) | 10 (≈ 22.6 µM) | – | – | 50 | 6.1
COC12C(COC(N)=O)C3=C(C(=O)C(CSCc4ccccc4)=C(N)C3=O)N1CC1NC12 (stereo not drawn) [Compound 18, 6-Demethyl-6-benzylthiomethylmitomycin C] | 0.039 (≈ 0.0854 µM) | 0.16 (≈ 0.35 µM) | 40 (≈ 87.6 µM) | 5 (≈ 11 µM) | – | – | 56.6 | 20.2
COC12C(COC(N)=O)C3=C(C(=O)C4=C(NCCSC4)C3=O)N1CC1NC12 (stereo not drawn) [Compound 20] | 5 (≈ 12.7 µM) | 2.5 (≈ 6.37 µM) | 40 (≈ 102 µM) | 10 (≈ 25.5 µM) | – | – | 22.5 | 12.6
